Results as given in US20140206635A1, “METAL-SALEN COMPLEX COMPOUND, LOCAL ANESTHETIC AND ANTINEOPLASTIC DRUG” (IHI CORPORATION, priority 2011, published 2014).

Key:
[1] = Magnetic guidance of i.v. drug to right kidney, SNR by MRI; format: in vivo; conditions: mouse, intravenous; about 0.3 T at right kidney; after 10 minutes; vs left kidney and control
Description: Next, an guidance example using a guidance system will be described. […] The metal plate 236, especially an iron plate, is placed between the pair of magnets 230 and 232 so that a magnetic field of locally uniform and strong strength can be created. An electrical magnet can be used instead of a magnet to modify the magnetic force generated in this guidance system. The magnetism-generating means can be moved to a target position of the individual on a table to allow the pair of magnetism-generating means to move in the X, Y, and Z directions. The tissue of an individual can be placed in the region of the magnetic field to concentrate the drug in the tissue.
More specifically, for example, the aforementioned Fe salen complex compound (drug concentration: 5 mg/mL (15 mM)) was injected intravenously into a mouse weighing about 30 g, a laparotomy was performed, and the mouse was placed on the iron plate 236 to locate its right kidney between the pair of magnets 230 and 232. […]
Together with the left kidney and a kidney to which no field was applied (control), a magnetic field was applied to the right kidney of the mouse; and after 10 minutes the SNR was measured by MRI in T1 mode and T2 mode.

[2] = Temperature rise of ointments under AC magnetic field; format: physicochemical; conditions: AC field 258 A, 400 kHz, 51.74 mT; for temperature rise of ointment: 300 seconds
Experimental: The aforementioned Fe salen complex compound was mixed with Vaseline, which is an adjuster for ointments, as a base at concentrations of 100 mmol and 200 mmol, respectively, to produce ointments. Then, the relationship between time and a temperature rise was measured by applying an AC magnetic field to these ointments under conditions of 258 A, 400 kHz, and 51.74 mT.
Then, the compound expressed by the aforementioned Formula (I) was mixed with Kenalog, which is an ointment for stomatitis, as a base at concentrations of 100 mmol and 200 mmol, respectively, to produce ointments. Then, the relationship between time and a temperature rise was measured by applying an AC magnetic field to these ointments under conditions of 258 A, 400 kHz, and 51.74 mT.
Next, as comparisons, the relationship between time and a temperature rise was measured by applying an AC magnetic field to each of 200 mg Vaseline and 200 mg Kenalog under conditions of 258 A, 400 kHz, and 51.74 mT.

[3] = test system: Clone M3 melanoma cells; assay: Melanoma growth in mouse tail with local magnetic field; format: in vivo; conditions: for melanoma extension (area of melanoma pigmentation): 12 days after initial injection, saline group 100%; for histological examination, tumor expansion of melanoma: HE, anti-Ki-67, anti-Cyclyn D1 staining
Experimental: Melanoma was established in mouse tails in vivo by local grafting of cultured melanoma cells (Clone M3 melanoma cells). Incidentally, FIG. 11(1) is a photograph showing the effects of a saline group (saline) into which the saline water was injected instead of the Fe salen complex compound; FIG. 11(2) is a photograph showing the effects of a group (SC) into which the Fe salen complex compound was injected without applying the magnetic field; and FIG. 11(3) is a photograph showing the effect of a group (SC+Mag) into which the Fe salen complex compound was injected while applying the magnetic field (n=7-10).
The Fe salen complex compound (50 mg/kg) was administered intravenously via tail vein, followed by local application of a magnetic field by the use of a commercially available bar magnet (630 mT, a cylindrical neodymium magnet, 150 mm long and 20 mm in diameter). Application of a bar magnet was performed with 3 hour gentle contact with the site of melanoma immediately after injection of the Fe salen complex compound for 10-14 days.
Application of the bar magnet was performed in such a way so that the magnetic field strength became maximal over the area of expected melanoma extension, which was approximately […] or shorter in a mouse tail for a growth period of 2 weeks. Twelve days after the initial injection of the Fe salen complex compound, the extension of melanoma was evaluated by assessing the area of melanoma pigmentation.
A histological examination was performed as shown in FIG. 13 by means of Hematoxylin-Eosin staining and immuno-histochemical staining with an anti-Ki-67 antibody and an anti-Cyclyn D1 antibody which are both tumor proliferation markers in tissue sections.

[4] = Magnetic field-magnetization curve (MPMS7); format: physicochemical; conditions: magnetic field less than 10000 Oe (1 T); 37 degrees Celsius
Description: However, when the magnetic field exceeds 10000 Oe (1 T), the Co salen complex compound or the Mn salen complex compound has large magnetization and is most suited for magnetic induction drug delivery systems which use superconducting magnets.

[5] = test system: rat L6 cell; assay: Rat L6 cell culture with bar magnet, cell count proximal vs distal to the magnet; format: cell-based; conditions: after 48 hours, bar magnet at flask
Experimental: Culture medium was sprinkled with metal-salen complex compound powder, which is obtained with respect to each of the Fe salen complex compound, the Mn salen complex compound, the Cr salen complex compound, and the Co salen complex compound by the above-described method, in amounts allowing magnetic attraction to be visibly observed at a rat L6 cell confluence of 30%, and the state of the medium was photographed after 48 hours.
Then, after 48 hours, the bottom face of the rectangular flask was photographed from one end to the other, and the cell count was calculated. Incidentally, Referring to FIG. 8, a “position proximal to the magnet” means within a projection area of the magnet end surface at the bottom of the rectangular flask, and a “position distal to the magnet” means a region on the side opposite the magnet end surface at the bottom of the rectangular flask.
As a result, the magnetic drugs and the system equipped with magnetism-generating means according to the present invention can thus allow the drugs to become concentrated in target tissues and tissues of individuals.

[6] = Temperature rise under near infrared radiation; format: physicochemical; conditions: 100 mmol in agarose; near infrared 600 nm to 1600 nm, 10 W
Experimental: Next, a diatomic Fe salen complex compound (CAS#14167-12-5; produced by Tokyo Chemical Industry Co., Ltd.) was dissolved in agarose to produce a 100 mmol solution, which was put in a test tube, thereby preparing a sample. A sample of pure water put in a test tube was also prepared as a comparison. Then, these samples were respectively exposed to medical near infrared radiation (wavelengths: 600 nm to 1600 nm) by TOKYO IKEN CO., LTD. by using Super Lizer PX Type I (output: 10 W).

SMILES | drug retention in right kidney (SNR by MRI, T1 and T2 mode) [1] | temperature of ointment immediately after the measurement (0 second) ([2]; Kenalog base, 100 mmol) | temperature rise of ointment ([2]; Kenalog base, 200 mmol) | temperature of ointment immediately after the measurement (0 second) ([2]; Kenalog base, 200 mmol) | temperature of ointment immediately after the measurement (0 second) ([2]; Vaseline base, 100 mmol) | temperature rise of ointment ([2]; Vaseline base, 200 mmol) | temperature of ointment immediately after the measurement (0 second) ([2]; Vaseline base, 200 mmol) | melanoma extension (area of melanoma pigmentation) ([3]; SC group: 50 mg/kg i.v., no magnetic field) | melanoma extension (area of melanoma pigmentation) ([3]; SC+Mag group: 50 mg/kg i.v. plus bar magnet 630 mT, 3 hour) | histological examination, tumor expansion of melanoma ([3]; SC, no magnetic field) | histological examination, tumor expansion of melanoma ([3]; with magnetic force field application) | magnetization [4] | number of cells at position proximal to the magnet vs position distal to the magnet [5] | temperature of sample 300 seconds later [6] | temperature of sample immediately after the measurement (0 second) [6]
[Fe+2].[O-]c1ccccc1C=NCCN=Cc1ccccc1[O-] [Fe salen complex compound] | possible to make the drug stay in the right kidney | 35 degrees Celsius | approximately 5 degrees Celsius | 35 degrees Celsius | 35 degrees Celsius | approximately 5 degrees Celsius | 35 degrees Celsius | 63.68±16.3% | 9.05±3.42% | tumor expansion of melanoma diminished | mostly disappeared | largest magnetization | dramatically lower number of cells |  | 
Oc1ccccc1C=NCCN=Cc1ccccc1O.[Fe+2] [diatomic Fe salen complex compound] |  |  |  |  |  |  |  |  |  |  |  |  |  | approximately 53 degrees Celsius | 26 degrees Celsius
